Experiment: xn = mol fraction of the nth substance listed
Conditions: Liquid, Vibrating tube method

CCCCCCCO [heptan-1-ol] + CCCCCCC
mass density [kg/m3]
Conditions	x1 = 0.1493	x1 = 0.3215	x1 = 0.5226	x1 = 0.6698	x1 = 0.8469	x1 = 1
333.15 K, 140000 kPa	–	779.8	804.5	823.2	851.4	864.3
353.15 K, 100 kPa	654.4	676.1	705.8	728.5	762.3	778.1
353.15 K, 1000 kPa	655.7	677.3	706.8	729.4	763.1	778.8
353.15 K, 5000 kPa	661.2	682.2	711.3	733.6	766.7	782.3
353.15 K, 10000 kPa	667.4	687.9	716.4	738.3	771	786.3
353.15 K, 15000 kPa	673.1	693.2	721.3	742.9	775.2	790.2
353.15 K, 20000 kPa	678.4	698.2	725.8	747.1	779	793.9
353.15 K, 25000 kPa	683.2	702.8	730.1	751.1	782.7	797.3
353.15 K, 30000 kPa	687.9	707.1	734.2	755	786.3	800.7
353.15 K, 35000 kPa	692.2	711.1	738	758.6	789.6	804
353.15 K, 40000 kPa	696.2	715	741.6	762	792.8	807.1
353.15 K, 45000 kPa	700.2	718.7	745.1	765.4	795.9	810
353.15 K, 50000 kPa	704	722.4	748.5	768.7	799	813
353.15 K, 55000 kPa	707.5	725.7	751.7	771.8	801.9	815.8
353.15 K, 60000 kPa	711	729	754.9	774.8	804.7	818.6
353.15 K, 65000 kPa	714.3	732.2	757.9	777.7	807.5	821.2
353.15 K, 70000 kPa	717.5	735.2	760.9	780.5	810.2	823.8
353.15 K, 80000 kPa	723.5	741	766.4	785.9	815.2	828.7
353.15 K, 90000 kPa	729.1	746.5	771.7	791.1	820.1	833.5
353.15 K, 100000 kPa	734.4	751.6	776.7	795.9	824.8	837.9
353.15 K, 110000 kPa	739.6	756.6	781.5	800.6	829.3	842.3
353.15 K, 120000 kPa	744.3	761.2	786	804.9	833.4	846.4
353.15 K, 130000 kPa	748.8	765.6	790.2	809	837.5	850.3
353.15 K, 140000 kPa	753.2	769.9	794.6	813.2	841.4	854.3
373.15 K, 100 kPa	–	–	–	–	–	761.9
373.15 K, 1000 kPa	636.8	658.8	688.9	712.2	746.6	762.8
373.15 K, 5000 kPa	643.2	664.6	694.1	716.9	750.7	766.6
373.15 K, 10000 kPa	650.5	671.2	700	722.4	755.5	771.1
373.15 K, 15000 kPa	656.9	677.2	705.5	727.5	760.2	775.5
373.15 K, 20000 kPa	662.9	682.7	710.6	732.2	764.4	779.5
373.15 K, 25000 kPa	668.4	687.9	715.4	736.7	768.6	783.4
373.15 K, 30000 kPa	673.6	692.7	719.9	740.9	772.4	787.1
373.15 K, 35000 kPa	678.4	697.2	724.1	744.9	776	790.6
373.15 K, 40000 kPa	682.8	701.4	728.1	748.7	779.7	794
373.15 K, 45000 kPa	687.2	705.6	732	752.4	783	797.2
373.15 K, 50000 kPa	691.2	709.3	735.5	755.9	786.3	800.3
373.15 K, 55000 kPa	695.1	713	739.1	759.2	789.4	803.4
373.15 K, 60000 kPa	698.8	716.6	742.4	762.4	792.4	806.3
373.15 K, 65000 kPa	702.3	720.1	745.7	765.5	795.5	809.2
373.15 K, 70000 kPa	705.7	723.2	748.8	768.5	798.2	811.9
373.15 K, 80000 kPa	712.2	729.5	754.8	774.4	803.7	817.2
373.15 K, 90000 kPa	718.3	735.4	760.4	779.8	808.9	822.3
373.15 K, 100000 kPa	723.8	740.9	765.7	784.9	813.8	827
373.15 K, 110000 kPa	729.2	746.1	770.7	789.8	818.5	831.6
373.15 K, 120000 kPa	734.3	751	775.5	794.4	822.9	835.9
373.15 K, 130000 kPa	739.1	755.7	780.1	798.9	827.3	840.2
373.15 K, 140000 kPa	743.7	760.2	784.5	803.1	831.4	844.1
393.15 K, 100 kPa	–	–	–	–	–	744.9
393.15 K, 1000 kPa	617.4	639.3	670.1	693.9	729.1	745.8
393.15 K, 5000 kPa	625	646.2	676.1	699.4	733.9	750.2
393.15 K, 10000 kPa	633.5	653.8	683	705.6	739.3	755.3
393.15 K, 15000 kPa	640.9	660.7	689.2	711.4	744.5	760.1
393.15 K, 20000 kPa	647.6	666.9	694.9	716.6	749.2	764.6
393.15 K, 25000 kPa	653.8	672.7	700.2	721.6	753.7	768.8
393.15 K, 30000 kPa	659.5	678	705.2	726.3	758	772.9
393.15 K, 35000 kPa	664.8	683.1	709.8	730.6	762.1	776.8
393.15 K, 40000 kPa	669.7	687.7	714.2	734.8	765.9	780.4
393.15 K, 45000 kPa	674.3	692.1	718.3	738.8	769.6	783.9
393.15 K, 50000 kPa	678.7	696.3	722.3	742.6	773.1	787.3
393.15 K, 55000 kPa	683	700.4	726.2	746.3	776.6	790.7
393.15 K, 60000 kPa	687	704.1	729.8	749.7	779.8	793.8
393.15 K, 65000 kPa	690.7	707.8	733.2	753.1	782.9	796.8
393.15 K, 70000 kPa	694.4	711.4	736.7	756.4	786.1	799.8
393.15 K, 80000 kPa	701.3	718.1	743.1	762.5	791.9	805.5
393.15 K, 90000 kPa	707.8	724.3	749.2	768.3	797.5	810.9
393.15 K, 100000 kPa	713.7	730.1	754.7	773.8	802.6	815.9
393.15 K, 110000 kPa	719.4	735.7	760.1	778.9	807.7	820.8
393.15 K, 120000 kPa	724.6	740.8	765	783.8	812.3	825.3
393.15 K, 130000 kPa	729.7	745.7	769.8	788.5	816.8	829.8
393.15 K, 140000 kPa	734.6	750.5	774.5	793	821.3	834
